From patent publication US20150105252A1, “SUBSTITUTED PYRAZOLES AS HERBICIDES” (E I DU PONT DE NEMOURS AND COMPANY, priority 2013, published 2015)

Legend:
johnsongrass = experiment: Test C postemergence; type: in vivo, Sorghum halepense; conditions: for Plant response rating (scale of 0 to 100 where 0 is no effect and 100 is complete control), Johnsongrass: Postemergence, 31 g ai/ha, visually evaluated after 13 to 15 days; for Johnsongrass plant response rating / Plant response rating, Johnsongrass: postemergence; for Johnsongrass plant response rating: 62 g ai/ha, scale 0 to 100
Summary of the method: (§1)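 In this greenhouse assay, seeded soil (loam plus sand) or emerged seedlings in peat-vermiculite medium were treated with formulated compound. Roughly two weeks later (13–15 days), each species was scored visually relative to controls, from 0 for no effect to 100 for complete control.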

wheat = experiment: Test C postemergence; type: in vivo, Triticum aestivum; conditions: for Plant response rating (scale of 0 to 100 where 0 is no effect and 100 is complete control), Wheat: Postemergence, 31 g ai/ha, visually evaluated after 13 to 15 days; for Wheat plant response rating / Plant response rating, Wheat: postemergence; for Wheat plant response rating: 62 g ai/ha, scale 0 to 100
Summary of the method: as §1

corn = experiment: Test C postemergence; type: in vivo, Zea mays; conditions: for Plant response rating (scale of 0 to 100 where 0 is no effect and 100 is complete control), Corn: Postemergence, 31 g ai/ha, visually evaluated after 13 to 15 days; for Corn plant response rating / Plant response rating, Corn: postemergence; for Corn plant response rating: 62 g ai/ha, scale 0 to 100
Summary of the method: as §1

crabgrass, large [1] = experiment: Test C preemergence; type: in vivo, Digitaria sanguinalis; conditions: for Plant response rating (scale of 0 to 100), Crabgrass, Large: Preemergence, 250 g ai/ha; for Crabgrass, Large plant response rating / Plant response rating, Crabgrass, Large: preemergence, 13 to 15 days; for Crabgrass, Large plant response rating: scale 0 to 100 (0 no effect, 100 complete control); for Plant response rating, Crabgrass, Large: 125 g ai/ha, scale 0 to 100, 0 = no effect, 100 = complete control
Summary of the method: as §1

pigweed = experiment: Test A postemergence; type: in vivo, Amaranthus retroflexus
Summary of the method: (§2)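 Seeds were sown in a loam soil–sand blend and given a directed soil spray preemergence; postemergence plants at 2–10 cm, one- to two-leaf stage, were sprayed with compound in non-phytotoxic solvent with surfactant. After about 10 days in a greenhouse, injury was visually rated against untreated controls (0 = no effect, 100 = complete control).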

crabgrass, large [2] = experiment: Test C postemergence; type: in vivo, Digitaria sanguinalis; conditions: for Plant response rating (scale of 0 to 100 where 0 is no effect and 100 is complete control), Crabgrass, Large: Postemergence, 31 g ai/ha, visually evaluated after 13 to 15 days; for Crabgrass, Large plant response rating / Plant response rating, Crabgrass, Large: postemergence; for Crabgrass, Large plant response rating: 62 g ai/ha, scale 0 to 100
Summary of the method: as §1

oilseed rape = experiment: Test C postemergence; type: in vivo, Brassica napus; conditions: for Plant response rating (scale of 0 to 100 where 0 is no effect and 100 is complete control), Oilseed Rape: Postemergence, 31 g ai/ha, visually evaluated after 13 to 15 days; for Oilseed Rape plant response rating / Plant response rating, Oilseed Rape: postemergence; for Oilseed Rape plant response rating: 62 g ai/ha, scale 0 to 100
Summary of the method: as §1

barnyardgrass = experiment: Test B flood; type: in vivo, Echinochloa crus-galli; conditions: 250 g ai/ha, visual rating on 0 to 100 scale (0 no effect, 100 complete control), 13 to 15 days
Summary of the method: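 Each compound is applied to the floodwater of pots holding 2-leaf seedlings, water standing 3 cm over the soil throughout. Plants stay in a greenhouse 13 to 15 days before visual scoring against controls from 0 (no effect) to 100 (complete control).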

foxtail, giant = experiment: Test C preemergence; type: in vivo, Setaria faberii; conditions: for Plant response rating (scale of 0 to 100), Foxtail, Giant: Preemergence, 250 g ai/ha; for Foxtail, Giant plant response rating / Plant response rating, Foxtail, Giant: preemergence, 13 to 15 days; for Foxtail, Giant plant response rating: scale 0 to 100 (0 no effect, 100 complete control); for Plant response rating, Foxtail, Giant: 125 g ai/ha, scale 0 to 100, 0 = no effect, 100 = complete control
Summary of the method: as §1

waterhemp = experiment: Test C preemergence; type: in vivo, Amaranthus rudis; conditions: for Plant response rating (scale of 0 to 100), Waterhemp: Preemergence, 250 g ai/ha; for Waterhemp plant response rating / Plant response rating, Waterhemp: preemergence, 13 to 15 days; for Waterhemp plant response rating: scale 0 to 100 (0 no effect, 100 complete control); for Plant response rating, Waterhemp: 125 g ai/ha, scale 0 to 100, 0 = no effect, 100 = complete control
Summary of the method: as §1

morningglory [3] = experiment: Test A preemergence; type: in vivo, Ipomoea spp.; conditions: preemergence
Summary of the method: as §2

blackgrass = experiment: Test C postemergence; type: in vivo, Alopecurus myosuroides; conditions: for Plant response rating (scale of 0 to 100 where 0 is no effect and 100 is complete control), Blackgrass: Postemergence, 31 g ai/ha, visually evaluated after 13 to 15 days; for Blackgrass plant response rating / Plant response rating, Blackgrass: postemergence; for Blackgrass plant response rating: 62 g ai/ha, scale 0 to 100
Summary of the method: as §1

morningglory [4] = experiment: Test A postemergence; type: in vivo, Ipomoea spp.
Summary of the method: as §2

[5] = 250 g ai/ha, scale 0 to 100 (0 no effect, 100 complete control)
[6] = 125 g ai/ha, scale 0 to 100, 0 no effect, 100 complete control
[7] = Postemergence, 500 g ai/ha, 0 to 100 scale (0 no effect, 100 complete control)
[8] = postemergence, 125 g ai/ha, about 10 days, visual rating on 0 to 100 scale (0 no effect, 100 complete control)
[9] = 125 g ai/ha, visual injury, 0 to 100 scale, approx. 10 days
[10] = 500 g ai/ha, visual injury after approx. 10 days, 0 to 100 scale (0 no effect, 100 complete control)

CCNC(=O)c1cc(CC)n(Cc2ccnc(OC(F)F)c2)n1 [Compound 130]
55: Plant response rating, Oilseed Rape (oilseed rape; [6])
0: Plant response rating (scale of 0 to 100 where 0 is no effect and 100 is complete control), Johnsongrass (johnsongrass) | Plant response rating (scale of 0 to 100 where 0 is no effect and 100 is complete control), Wheat (wheat) | Wheat plant response rating (wheat)
5: Johnsongrass plant response rating (johnsongrass) | Plant response rating, Johnsongrass (johnsongrass; [6]) | Plant response rating, Wheat (wheat; [5]) | Plant response rating, Wheat (wheat; [6]) | Plant response rating (scale of 0 to 100 where 0 is no effect and 100 is complete control), Corn (corn) | Corn plant response rating (corn) | Plant response rating, Corn (corn; [6]) | Plant response rating (scale of 0 to 100 where 0 is no effect and 100 is complete control), Crabgrass, Large (crabgrass, large [2]) | Crabgrass, Large plant response rating (crabgrass, large [2]) | Plant response rating (scale of 0 to 100 where 0 is no effect and 100 is complete control), Blackgrass (blackgrass) | Blackgrass plant response rating (blackgrass)
25: Plant response rating, Corn (corn; [5]) | Plant response rating, Crabgrass, Large (crabgrass, large [2]; [5])
70: Foxtail, Giant plant response rating (foxtail, giant; 31 g ai/ha, visual rating)
90: Morningglory plant response rating (morningglory [4]; [8])
95: Foxtail, Giant plant response rating (foxtail, giant; 62 g ai/ha)
35: Plant response rating (scale of 0 to 100 where 0 is no effect and 100 is complete control), Oilseed Rape (oilseed rape)
100: Plant response rating (scale of 0 to 100), Crabgrass, Large (crabgrass, large [1]) | Crabgrass, Large plant response rating (crabgrass, large [1]; 31 g ai/ha, visual rating) | Crabgrass, Large plant response rating (crabgrass, large [1]; 62 g ai/ha) | Plant response rating, Crabgrass, Large (crabgrass, large [1]) | Pigweed plant response rating (pigweed; [7]) | Pigweed plant response rating (pigweed; [8]) | Plant response rating (scale of 0 to 100), Foxtail, Giant (foxtail, giant) | Plant response rating, Foxtail, Giant (foxtail, giant) | Plant response rating (scale of 0 to 100), Waterhemp (waterhemp) | Waterhemp plant response rating (waterhemp; 31 g ai/ha, visual rating) | Waterhemp plant response rating (waterhemp; 62 g ai/ha) | Plant response rating, Waterhemp (waterhemp) | Morningglory plant response rating (morningglory [3]; [9]) | Morningglory plant response rating (morningglory [3]; [10]) | Morningglory plant response rating (morningglory [4]; [7])
10: Plant response rating, Johnsongrass (johnsongrass; [5]) | Plant response rating, Crabgrass, Large (crabgrass, large [2]; [6]) | Plant response rating, Blackgrass (blackgrass; [5]) | Plant response rating, Blackgrass (blackgrass; [6])
40: Oilseed Rape plant response rating (oilseed rape) | Plant response rating, Barnyardgrass (barnyardgrass)
60: Plant response rating, Oilseed Rape (oilseed rape; [5])

CCCNC(=O)c1cc(CC)n(Cc2ccnc(OC(F)F)c2)n1 [Compound 132]
90: Pigweed plant response rating (pigweed; [8]) | Morningglory plant response rating (morningglory [4]; [8])
15: Plant response rating, Wheat (wheat; [5])
5: Plant response rating (scale of 0 to 100 where 0 is no effect and 100 is complete control), Johnsongrass (johnsongrass) | Johnsongrass plant response rating (johnsongrass) | Plant response rating (scale of 0 to 100 where 0 is no effect and 100 is complete control), Wheat (wheat) | Plant response rating (scale of 0 to 100 where 0 is no effect and 100 is complete control), Corn (corn) | Corn plant response rating (corn) | Plant response rating (scale of 0 to 100 where 0 is no effect and 100 is complete control), Crabgrass, Large (crabgrass, large [2]) | Crabgrass, Large plant response rating (crabgrass, large [2]) | Plant response rating (scale of 0 to 100 where 0 is no effect and 100 is complete control), Blackgrass (blackgrass) | Blackgrass plant response rating (blackgrass)
100: Plant response rating (scale of 0 to 100), Crabgrass, Large (crabgrass, large [1]) | Crabgrass, Large plant response rating (crabgrass, large [1]; 62 g ai/ha) | Plant response rating, Crabgrass, Large (crabgrass, large [1]) | Pigweed plant response rating (pigweed; [7]) | Plant response rating (scale of 0 to 100), Foxtail, Giant (foxtail, giant) | Foxtail, Giant plant response rating (foxtail, giant; 62 g ai/ha) | Plant response rating, Foxtail, Giant (foxtail, giant) | Plant response rating (scale of 0 to 100), Waterhemp (waterhemp) | Waterhemp plant response rating (waterhemp; 31 g ai/ha, visual rating) | Waterhemp plant response rating (waterhemp; 62 g ai/ha) | Plant response rating, Waterhemp (waterhemp) | Morningglory plant response rating (morningglory [3]; [9]) | Morningglory plant response rating (morningglory [3]; [10]) | Morningglory plant response rating (morningglory [4]; [7])
25: Plant response rating, Johnsongrass (johnsongrass; [6]) | Plant response rating (scale of 0 to 100 where 0 is no effect and 100 is complete control), Oilseed Rape (oilseed rape) | Plant response rating, Blackgrass (blackgrass; [5])
10: Wheat plant response rating (wheat) | Plant response rating, Wheat (wheat; [6]) | Plant response rating, Blackgrass (blackgrass; [6])
20: Plant response rating, Corn (corn; [5])
60: Plant response rating, Barnyardgrass (barnyardgrass)
98: Crabgrass, Large plant response rating (crabgrass, large [1]; 31 g ai/ha, visual rating)
65: Plant response rating, Oilseed Rape (oilseed rape; [5]) | Plant response rating, Oilseed Rape (oilseed rape; [6])
75: Plant response rating, Johnsongrass (johnsongrass; [5]) | Plant response rating, Corn (corn; [6]) | Plant response rating, Crabgrass, Large (crabgrass, large [2]; [6])
95: Foxtail, Giant plant response rating (foxtail, giant; 31 g ai/ha, visual rating)
55: Plant response rating, Crabgrass, Large (crabgrass, large [2]; [5]) | Oilseed Rape plant response rating (oilseed rape)
